Legend:
Format in all cases: in vivo
[1] = tested on: Penicillium digitatum (Pd); experiment: Antifungal activity of vapor against Penicillium digitatum in wounded, infected mandarins; details: for effect on Pd mold: airtight container, assessed after 6 days
Protocol: Example 4. The antifungal activity of a range of AITC vapor concentrations was tested against Pd in mandarins. All mandarins were wounded by puncturing with a screw and infected by dispensing 1000 Pd spores suspended in 10 μL of water in each wound. The fruit was then placed in an airtight container, a range of AITC volumes were disposed onto a Whatman filter paper disc, the disc was suspended in front of a battery-powered fan, and the container closed for 18 hours. The mandarins were then left at ambient temperature and high humidity for 6 days. The test groups were mandarins that were infected and untreated, and infected and treated with 62.5 μL, 125 μL, 250 μL, and 500 μL on the filter paper disc. […] FIG. 6 is a bar graph showing incidence (% infected) for the test groups.
Example 5. The antifungal activity of a range of AITC vapor exposure times was tested to determine the effects against Pd in mandarins. All samples were wounded by puncturing with a screw. Mandarins were infected by dispensing 1000 Pd spores suspended in 10 μL of water in the wound. The fruit was then placed in an airtight container, 125 μL of AITC was dispensed onto a Whatman filter paper disc, the disc suspended in front of a battery-powered fan, and the container closed for 15 minutes to 2 hours. The test groups were then left at ambient temperature, high humidity, and assessed for Pd mold after 6 days. The test groups consisted of mandarins that were: uninfected and untreated; infected and untreated; infected and treated with 0.5 g/L imazalil; infected, treated with 125 μL of AITC on the filter paper, and exposed to the vapor for 15 minutes, 30 minutes, 1 hour, and 2 hours.

[2] = tested on: Colletotrichum gloeosporioides (Cg); experiment: Antifungal activity of vapor against Colletotrichum gloeosporioides in avocados
Protocol: Example 7. The antifungal activity of AITC and DADS vapor against Colletotrichum gloeosporioides (Cg) was tested in avocados. All test pieces were wounded by removing the stem and infected by dispensing 1000 Cg spores suspended in 10 μL of water into the wound. The test groups consisted of avocados that were: untreated and uninfected; untreated and infected; treated by dipping in a solution of 0.1 g/L of prochloraz; exposed to the vapor of 3 mL of AITC disposed in a Petri dish; and exposed to the vapor of 3 mL of DADS disposed in a Petri dish. FIG. 9 quantifies the infection results. AITC vapor reduced the incidence of Cg mold by 97% compared to the untreated test group and 70% compared to the prochloraz treated test group. DADS vapor reduced the incidence of Cg mold by 60% compared to the untreated test group.
Example 8. The antifungal activity of a range of DADS vapor exposure times was tested against Cg in avocados. All test pieces were wounded by removing the stem and infected by dispensing 1000 Cg spores suspended in 10 μL of water into the wound. The test groups consisted of avocados that were: infected and untreated; and exposed to the vapor of 3 mL of DADS in a Petri dish for 24 hours, 48 hours, and 72 hours. FIG. 10 quantifies the infection results. Test group exposed to DADS vapor at all exposure times reduced the incidence of Cg mold compared to the untreated test group. A 24 hour DADS exposure reduced the incidence of Cg mold by 8%. A 48 hour DADS exposure reduced the incidence of Cg mold by 25%. A 72 hour DADS exposure reduced the incidence of Cg mold by 57%.
Example 9. The antifungal activity of a range of AITC and carvacrol vapor exposure times was tested against Cg in avocados. To measure the effect of the various treatments on ripening, durometer shore was taken after 7 days of incubation at ambient temperature and high humidity. All samples were wounded by removing the stem and infected by dispensing 1000 Cg spores suspended in 10 μL of water in the wound. The test groups consisted of avocados that were: infected and left untreated on the benchtop; infected and left untreated under a fume hood; exposed to the vapor of 3 mL of AITC in a Petri dish for 24 hours, 48 hours, and 72 hours; and exposed to the vapor of 3 mL of carvacrol in a Petri dish for 72 hours. FIG. 11 quantifies the infection results. […] All exposure times to AITC vapor reduced the incidence of Cg mold compared to the untreated samples. A 24 hour AITC exposure reduced the incidence of Cg mold by 90%. A 48 hour AITC exposure reduced the incidence of Cg mold by 97%. A 72 hour AITC exposure reduced the incidence of Cg mold by 83%. […]
Example 21. The antifungal activity of avocados exposed to AITC vapor and prochloraz was tested against Cg in avocados. To measure the effect of the various treatments on ripening, durometer shore was taken after 5 days of incubation at ambient temperature (about 20° C. to about 25° C.) and high humidity (about 88% relative humidity to about 93% relative humidity). All samples were wounded by removing the stem and infected by dispensing 1000 Cg spores suspended in 10 μL of water in the wound. Exposure to vapor was done by placing the avocados in an airtight container, dispensing AITC onto Whatman filter paper discs, suspending the discs in front of a battery-powered fan, closing the container and incubating the avocados for 30 minutes. After vapor exposure, the avocados were left at ambient temperature, high humidity, and assessed for Cg mold on day 5. Treatment groups consisted of avocados that were: exposed for 30 minutes to the vapor of 125 μL of AITC disposed on a filter paper disc; dipped in a solution of 0.1 g/L of prochloraz and placed to dry on a rack in front of a fan for 30 min; infected and left untreated; and uninfected and untreated. […] To prepare the 0.1 g/L of prochloraz, 10 mg of prochloraz was mixed with 10 mL of ethanol and 90 mL of water. […] A 24 hour AITC exposure reduced the incidence of Cg mold by 90%. […]

[3] = tested on: Botrytis cinerea (Bc); experiment: Antifungal activity of vapor against Botrytis cinerea in grapes; details: vapor of 3 mL in a Petri dish for 72 hours
Protocol: (§1) Example 12. The antifungal activity of AITC and DADS vapor against Botrytis cinerea (Bc) in grapes was tested. All samples were wounded by making a 3 mm deep puncture in the skin. Samples were infected by dispensing 1000 Bc spores suspended in 10 μL of water in the wound. The test groups consisted of grapes that were: uninfected and untreated; infected and untreated; exposed to the vapor of 3 mL of AITC in a Petri dish for 72 hours; and exposed to the vapor of 3 mL of DADS in a Petri dish for 72 hours. FIG. 17 quantifies the infection results. […] Both AITC and DADS vapor were effective at controlling Bc mold. Treatment with AITC can potentially lead to changes in color or flavor of the grapes.

[4] = tested on: grapes; experiment: Visible appearance of vapor-treated grapes
Protocol: as §1

[5] = mandarins, 72 hours vapor of 3 mL in a Petri dish

`C=CCN=C=S` [AITC, allyl isothiocyanate] was tested, and the “inhibition of fungal growth” value ([1]; mandarins infected with Pd, 72 hours vapor of 3 mL in a Petri dish) was “approximately 100%”, the “effect on Pd mold” value ([1]; mandarins, 125 μL on filter paper (730 ppm), 30 min exposure) was “greatly reduced severity of Pd mold infection” and the “effect on Pd infection” value ([1]; mandarins, 125 μL on filter paper disc, airtight container with fan, 18 hours, then 6 days) was “substantially prevented the growth mold”. The “effect on Pd mold” value ([1]; mandarins, 125 μL on filter paper, 15 minute exposure) was “little effect on Pd mold”, the “effect on Pd mold” value ([1]; mandarins, 125 μL on filter paper, 1 hour exposure) was “greatly reduced severity and incidence of Pd mold” and the “effect on Pd infection” value ([1]; mandarins, 250 μL on filter paper disc, airtight container with fan, 18 hours, then 6 days) was “substantially prevented the growth mold”. The “effect on Pd infection / mold growth” value [1, 5] was “substantially prevented”, the “effect on Pd infection” value ([1]; mandarins, vapor of 500 μL in a Petri dish for 72 hours) was “substantially prevented Pd infections” and the “reduction of the incidence of Cg mold” value ([2]; 24 hour AITC exposure as printed) was 90%. The “reduction of the incidence of Cg mold” value ([2]; Example 9, vapor of 3 mL in a Petri dish for 24 hours, 7 days of incubation) was 90%, the “reduction of the incidence of Cg mold” value ([2]; Example 9, vapor of 3 mL in a Petri dish for 48 hours, 7 days of incubation) was 97% and the “reduction of the incidence of Cg mold” value ([2]; Example 9, vapor of 3 mL in a Petri dish for 72 hours, 7 days of incubation) was 83%. The “incidence of Cg mold” value ([2]; Example 21, 30 minutes vapor of 125 μL on filter paper disc, assessed on day 5) was “reduced the incidence of Cg mold compared to the untreated samples and the prochloraz treated sample”, the “reduction of the incidence of Cg mold compared to the untreated test group” value ([2]; vapor of 3 mL in a Petri dish) was 97% and the “reduction of the incidence of Cg mold compared to the prochloraz treated test group” value ([2]; vapor of 3 mL in a Petri dish, prochloraz 0.1 g/L dip) was 70%. For the same compound, the “effect on Bc mold” value [3] was “substantially eliminated Bc mold” and the “visible appearance of treated fruit” value ([4]; in vivo) was “darkening of the fruit”.

In the case of `C=CCSSCC=C` [DADS, diallyl disulfide], the “effect on Pd infection / mold growth” value [1, 5] was “substantially prevents Pd mold growth”, the “reduction of the incidence of Pd mold compared to the untreated samples” value ([1]; mandarins, exposed for 72 hours to the vapor of 3 mL in a Petri dish) was 85% and the “reduction of the incidence of Cg mold” value ([2]; Example 8, vapor of 3 mL in a Petri dish for 24 hours) was 8%. The “reduction of the incidence of Cg mold” value ([2]; Example 8, vapor of 3 mL in a Petri dish for 48 hours) was 25%, the “reduction of the incidence of Cg mold” value ([2]; Example 8, vapor of 3 mL in a Petri dish for 72 hours) was 57% and the “reduction of the incidence of Cg mold compared to the untreated test group” value ([2]; vapor of 3 mL in a Petri dish) was 60%. For the same compound, the “effect on Bc mold” value [3] was “substantially eliminated Bc mold” and the “visible appearance of treated fruit” value ([4]; grapes, vapor of 3 mL in a Petri dish for 72 hours) was “appeared unchanged”.

Source: patent US20250204541A1, “GAS PHASE TREATMENT OF PRODUCE” (priority 2022, published 2025)
